This is an account of results in patent EP3575287A1, “INHIBITORS OF N-ACYLPHOSPHATIDYLETHANOLAMINE PHOSPHOLIPASE D (NAPE-PLD)” (Universiteit Leiden, priority 2018, dated 2019).

The target of this test is T1, human NAPE-PLD (Homo sapiens, UniProt Q6IQ20).
T1 construct: Full length human cDNA NAPE-PLD was obtained from Natsuo Ueda; made in house; host or cells: HEK293T cells, transient transfection (pcDNA3.1); membrane fraction used
T1 sequence (Q6IQ20 whole entry): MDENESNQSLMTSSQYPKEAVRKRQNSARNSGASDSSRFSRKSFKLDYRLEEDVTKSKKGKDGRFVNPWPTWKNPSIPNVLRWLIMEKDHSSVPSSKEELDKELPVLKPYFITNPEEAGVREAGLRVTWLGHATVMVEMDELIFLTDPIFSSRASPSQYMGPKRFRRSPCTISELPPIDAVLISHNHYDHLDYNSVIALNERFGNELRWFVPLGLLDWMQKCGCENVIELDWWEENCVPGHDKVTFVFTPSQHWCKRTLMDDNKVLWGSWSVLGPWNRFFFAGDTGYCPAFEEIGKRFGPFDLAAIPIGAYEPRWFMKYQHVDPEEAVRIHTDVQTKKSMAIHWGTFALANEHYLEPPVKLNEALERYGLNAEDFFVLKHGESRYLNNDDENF
Description: In vitro NAPE-PLD activity assay. The note with it: membrane protein fraction of HEK293T cells overexpressing human NAPE-PLD; substrate PED6 1 µM; 30 minutes preincubation at 37 °C. It counts as biochemical. As to the method:
Full length human cDNA NAPE-PLD was obtained from Natsuo Ueda^1 and cloned into mammalian expression vector pcDNA3.1, containing a C-terminal Flag-tag and genes for ampicillin and neomycin resistance. All plasmids were grown in XL-10 Z-competent cells and prepped (Maxi Prep, Qiagen). Sequence analysis for the confirmation of the sequences was performed at the Leiden Genome Technology Centre.
HEK293T were cultured at 37 °C and 7% CO2 in DMEM (Sigma Aldrich, D6546) with glutamax, penicillin (100 µg/ml), streptomycin (100 µg/ml) and 10% New Born Calf Serum iron supplemented (Hyclone SH30072.03). Cells were passaged twice a week to appropriate confluence.
24 hours before transfection 10^7 cells are seeded on a 15 cm dish. Two hours before transfection medium is refreshed, low volume. Transfection is performed with PEI in a ratio of 3:1 with human NAPE-PLD or Mock pcDNA3.1 Neo, 20 µg per dish. Medium is refreshed after 24 hours and cells are harvested after 72 hours.
Cell pellets are re-suspended in lysis buffer: 20 mM Hepes, 2 mM DTT, 0.25 M sucrose, 1 mM MgCl2, 2.5 U/ml benzonase and incubated 30 minutes on ice. The cytosolic fraction (supernatant) is separated from the membranes by ultra-centrifugation (32000 rpm for 30 minutes 100,000g). The pellet is resuspended in storage buffer: 20 mM Hepes, 2 mM DTT (membrane fraction). All samples are stored at -80°C. Enzyme concentrations are determined using a Bradford assay.
The NAPE-PLD activity assay is based on a previously reported method with small alterations.^2 The membrane protein fraction from transient overexpression of human NAPE-PLD in HEK293T cells was diluted to 0.4 mg/ml in assay buffer: 50 mM Tris-HCl (pH 7.5), 0.02% Triton X-100, 150 mM NaCl. The substrate PED6 (Invitrogen) 1 mM stock was consecutively diluted in DMSO (10x) and in assay buffer (10x) to make a 10 µM working solution. […] The assay is performed in a dark Greiner 96 wells plate, end volume 100 µl. The compound or DMSO is incubated with membrane protein lysate (final concentration 0.04 mg/ml) for 30 minutes at 37 °C. […] Mock lysate with DMSO is used for background substraction. IC50 curves are generated used Graphpad Prism v6.
The IC50 is the concentration at which inhibition is half-maximal. A low value points to greater potency in that assay. As for `CN(CCc1cccc(Oc2ccccc2)c1)c1nc(C(=O)NCC2CC2)cc(N2CCOCC2)n1` [Example 61, N-(cyclopropylmethyl)-2-(methyl(3-phenoxyphenethyl)amino)-6-morpholinopyrimidine-4-carboxamide], the IC50 is 3470 nM. This counts as single-digit micromolar.

As for `O=C(NCC1CC1)c1cc(N2CCOCC2)nc(N(CCc2ccccc2)CCc2ccccc2)n1` [Example 62, N-(cyclopropylmethyl)-2-(diphenethylamino)-6-morpholinopyrimidine-4-carboxamide], 525 nM corresponded to half-maximal inhibition (IC50). On to `O=C(NCC1CC1)c1cc(N2CCOCC2)nc(N2CCc3ccccc3C2)n1` [Example 63, N-(cyclopropylmethyl)-2-(3,4-dihydroisoquinolin-2(1H)-yl)-6-morphol inopyrimidine-4-carboxamide], for which it took 2240 nM to reach half-maximal inhibition (IC50). For `COc1ccc(CCN(C)c2nc(C(=O)NCC3CC3)cc(N3CCOCC3)n2)cc1` [Example 64, N-(cyclopropylmethyl)-2-((4-methoxyphenethyl)(methyl)amino)-6-morpholinopyrimidine-4-carboxamide], the IC50 is 3470 nM.

As to `O=C(NCC1CC1)c1cc(N2CCOCC2)nc(N(CCc2ccccc2)Cc2ccccc2)n1` [Example 65, 2-(benzyl(phenethyl)amino)-N-(cyclopropylmethyl)-6-morpholinopyrimidine-4-carboxamide], the concentration for half-maximal inhibition (IC50) was 1120 nM. As for `CN(CCc1cccc(Cl)c1)c1nc(C(=O)NCC2CC2)cc(N2CCOCC2)n1` [Example 66, 2-((3-chlorophenethyl)(methyl)amino)-N-(cyclopropylmethyl)-6-morpholinopyrimidine-4-carboxamide], the IC50 was 2450 nM. `CN(CCc1ccccc1Oc1ccccc1)c1nc(C(=O)NCC2CC2)cc(N2CCOCC2)n1` [Example 67, N-(cyclopropylmethyl)-2-(methyl(2-phenoxyphenethyl)amino)-6-morpholinopyrimidine-4-carboxamide] gave an IC50 of 603 nM. As for `CN(CCc1ccccc1Cl)c1nc(C(=O)NCC2CC2)cc(N2CCOCC2)n1` [Example 68, 2-((2-chlorophenethyl)(methyl)amino)-N-(cyclopropylmethyl)-6-morpholinopyrimidine-4-carboxamide], the figure is 977 nM; as for `Cc1ccc(CCN(C)c2nc(C(=O)NCC3CC3)cc(N3CCOCC3)n2)cc1` [Example 69, N-(cyclopropylmethyl)-2-(methyl(4-methylphenethyl)amino)-6-morpholinopyrimidine-4-carboxamide], 1820 nM. `O=C(NCC1CC1)c1cc(N2CCOCC2)nc(N(CCc2ccccc2)C2CC2)n1` [Example 70, 2-(cyclopropyl(phenethyl)amino)-N-(cyclopropylmethyl)-6-morpholinopyrimidine-4-carboxamide] had an IC50 of 1100 nM. Against the preceding molecule, the IC50 is about 1.7-fold lower. On to `CN(CCc1ccccc1-c1ccccc1)c1nc(C(=O)NCC2CC2)cc(N2CCOCC2)n1` [Example 71, 2-((2-([1,1'-biphenyl]-2-yl)ethyl)(methyl)amino)-N-(cyclopropylmethyl)-6-morpholino-pyrimidine-4-carboxamide], for which the IC50 was 490 nM. The same measure for `CCN(CCc1ccccc1)c1nc(C(=O)NCC2CC2)cc(N2CCOCC2)n1` [Example 72, N-(cyclopropylmethyl)-2-(ethyl(phenethyl)amino)-6-morpholinopyrimidine-4-carboxamide]: 646 nM. For `COc1ccc(CC2CCCCN2c2nc(C(=O)NCC3CC3)cc(N3CCOCC3)n2)cc1` (centres unmarked) [Example 73, N-(cyclopropylmethyl)-2-(2-(4-methoxybenzyl)piperidin-1-yl)-6-morpholinopyrimidine-4-carboxamide], 2570 nM corresponded to half-maximal inhibition (IC50). As for `O=C(NCC1CC1)c1cc(N2CCOCC2)nc(N2CCN(C(=O)OCc3ccccc3)C(c3ccccc3)C2)n1` (centres unmarked) [Example 74, benzyl 4-(4-((cyclopropylmethyl)carbamoyl)-6-morpholinopyrimidin-2-yl)-2-phenylpiperazine-1-carboxylate], the figure is 3240 nM; as for `CN(CCc1ccccc1)c1cc(C(=O)NCC2CC2)cc(N2CCOCC2)n1` [Example 75, N-(cyclopropylmethyl)-2-(methyl(phenethyl)amino)-6-morpholino isonicotinamide], 1450 nM.

The molecule `CN(C)c1cc(C(=O)NCC2CC2)nc(N(C)CCc2ccccc2)n1` [Example 76, N-(cyclopropylmethyl)-6-(dimethylamino)-2-(methyl(phenethyl)amino)pyrimidine-4-carboxamide] had an IC50 of 288 nM.

`O=C(NCC1CC1)c1cc(N2CCOCC2)nc(N(CCc2ccccc2)c2ccccc2)n1` [Example 77, N-(cyclopropylmethyl)-6-morpholino-2-(phenethyl(phenyl)amino)pyrimidine-4-carboxamide] gave an IC50 of 501 nM. As for `Cc1ccccc1CCN(C)c1nc(C(=O)NCC2CC2)cc(N2CCOCC2)n1` [Example 78, N-(cyclopropylmethyl)-2-(methyl(2-methylphenethyl)amino)-6-morpholinopyrimidine-4-carboxamide], the figure is 891 nM. In turn, `CN(CCc1ccccc1)c1cc(N2CCOCC2)cc(C(=O)NCC2CC2)n1` [Example 79, N-(cyclopropylmethyl)-6-(methyl(phenethyl)amino)-4-morpholinopicolinamide] had an IC50 of 10500 nM.

`CN(CCc1cccnc1)c1nc(C(=O)NCC2CC2)cc(N2CCOCC2)n1` [Example 80, N-(cyclopropylmethyl)-2-(methyl(2-(pyridin-3-yl)ethyl)amino)-6-morpholinopyrimidine-4-carboxamide] gave an IC50 of 10700 nM.

On to `CN(CCc1ccncc1)c1nc(C(=O)NCC2CC2)cc(N2CCOCC2)n1` [Example 81, N-(cyclopropylmethyl)-2-(methyl(2-(pyridin-4-yl)ethyl)amino)-6-morpholinopyrimidine-4-carboxamide], for which the 50% inhibitory concentration (IC50) was 11500 nM. `O=C(NCC1CC1)c1cc(N2CCOCC2)nc(N2CCNC(c3ccccc3)C2)n1` (centres unmarked) [Example 82, N-(cyclopropylmethyl)-6-morpholino-2-(3-phenylpiperazin-1-yl)pyrimidine-4-carboxamide] showed an IC50 of 7760 nM. For `COc1ccccc1CCN(C)c1nc(C(=O)NCC2CC2)cc(N2CCOCC2)n1` [Example 83, N-(cyclopropylmethyl)-2-((2-methoxyphenethyl)(methyl)amino)-6-morpholinopyrimidine-4-carboxamide], the IC50 was 776 nM. As for `CN(CCc1ccccn1)c1nc(C(=O)NCC2CC2)cc(N2CCOCC2)n1` [Example 84, N-(cyclopropylmethyl)-2-(methyl(2-(pyridin-2-yl)ethyl)amino)-6-morpholinopyrimidine-4-carboxamide], the figure is 12900 nM; as for `CN(CCc1ccccc1)c1nc(C(=O)NCC2CC2)cc(N2CCCC(F)(F)C2)n1` [Example 86, N-(cyclopropylmethyl)-6-(3,3-difluoropiperidin-1-yl)-2-(methyl(phenethyl)amino)pyrimidine-4-carboxamide], 389 nM; as for `CN(CCc1ccccc1)c1nc(Oc2ccccc2)cc(C(=O)NCC2CC2)n1` [Example 87, N-(cyclopropylmethyl)-2-(methyl(phenethyl)amino)-6-phenoxypyrimidine-4-carboxamide], 11200 nM.
